Test results from patent US9757334B2, “Surfactant-stripped micelle compositions with high cargo to surfactant ratio” (The Research Foundation for The State University of New York, priority 2014, dated 2017).

Test: Absorbance and peak shift of concentrated solutions
Assay type: physicochemical
Details: 1000 OD/mL in 10 μm path length versus 1000 fold dilution
Protocol: Characterization of Nanonap Physical and Optical Properties: Size and zeta potential measurement were carried out using dynamic light scattering with a Nano ZS90 Zetasizer (Malvern Instruments). Transmission electron microscopy was performed using a JEM-2010 electron microscope to determine the morphology of an aqueous dispersion of nanonaps negatively stained with 1% uranyl acetate. Absorbance was measured by with a Lambda 35 UV/VIS spectrophotometer (Perkin Elmer) at room temperature using cuvettes with 1 cm path lengths, except for the high-concentrated spectral shifting analysis which used 10 μm path-length cuvettes.
1 Pc and 3 Nc dyes were identified that gave rise to nanonaps with peaks at 600, 707, 793 and 863 nm (FIG. 25a, b). The nanonaps generated absorption spanning the NIR spectrum while maintaining reasonably narrow full-width half-maxima (50-100 nm). Since PA imaging can resolve multiple absorption wavelengths, multi-wavelength classes of nanoparticles are desirable. The PA spectral response of nanonaps aligned with their absorption spectra (FIG. 35). The nanoparticles could be concentrated into fully soluble solutions with absorptions of greater than 1000. […] This was assessed by measuring absorption of a concentrated solution (1000 optical densities (OD)/mL) in a 10 μm path length, and then measuring a 1000 fold dilution of the same solution in a 1 cm path length. […]

CC1(C)C(/C=C/C=C/C=C/C=C2\N(CCCCS(=O)(=O)O)c3ccc4ccccc4c3C2(C)C)=[N+](CCCCS(=O)(=O)[O-])c2ccc3ccccc3c21 [indocyanine green]
absorption peak shift upon concentration: large absorption shifts
